Assay results: patent US20100035287A1, “Secreted Luciferase Fluorescent Protein Conjugate Nucleic Acid Construct and Uses Thereof” (THE GENERAL HOSPITAL CORPORATION, priority 2006, published 2010)

Tests used:
[1] = test system: secretory pathway (Gluc secretion), 293T cells; assay: Blocking of secretory pathway: Gluc activity in conditioned medium of drug-treated cells; type: cell-based, human; settings: 24 h, 5 μg/ml BFA, 3 μg/ml monensin A, 10 μg/ml nocodazole, 5 μg/ml cytochalasin B
Method: Cells were treated for 24 h with different drugs which interfere with the secretory pathway. […] Scale bar, 10 μm. Luciferase activity. […] For Fluc detection, 450 μM Beetle D-luciferin (Molecular Imaging Products, Ann Arbor, Mich.) was added directly to the viable cells, in a 96 well plate and measured as above. The signal was measured for 10 sec and integrated over 2 sec in both cases. Blocking of secretory pathway.

[2] = test system: secretory pathway (Gluc secretion); assay: Bioluminescence from media of Gluc expressing cells treated with secretory pathway inhibitors (FIG. 11); type: cell-based
From the text: Nocodazone disrupts microtubule function and BrefeldinA disrupts golgi function.
This confirms Gluc is being secreted the secretory pathway.

[3] = test system: secretory pathway (Gluc-YFP secretion); assay: Gluc-YFP fusion: secretion and localization after BFA or nocodazole; type: cell-based, human; settings: for secretion of Gluc-YFP luciferase activity: cells expressing Gluc-YFP, conditioned medium 24 h after treatment
Method: Blocking of secretory pathway. […] Forty-eight h post-infection, cells were treated with either 5 μg/ml BFA, 3 μg/ml monensin A (MonA), 10 μg/ml nocodazole (Noc) or 5 μg/ml cytochalasin B (CytB) all obtained from Sigma.

[4] = test system: spliced XBP-1 mRNA, 293T cells; assay: Real-time qRT-PCR for spliced XBP-1 mRNA; type: cell-based, human
Method: (§1) Fold induction is calculated with respect to the control non-infected/non-treated cells. […] Blot is also probed with Gluc antibody as well as alpha-tubulin antibody for equal loading. […] The mean±S.E.M. is presented on the graphs (n=3), with *p<0.01 as compared to the non-treated cells and as calculated by the student's t-Test. NS=not significant
ER stress: total RNA isolation, reverse transcription and real-time qPCR. 293T cells were plated at 1×10^6 cells/mL in a 12-well plate. Cells were treated with different concentrations of DTT (Sigma) for 4 h. Total RNA was isolated using the RNeasy mini kit (Quiagen, Valencia, Calif.) and concentration was determined by measuring the OD260 using a spectrophotometer (Bio-Rad, Hercules, Calif.). Reverse transcription was performed on 200 ng RNA (in 10 μl) at 37° C. for 60 min using an Omniscript reverse transcription kit (Quiagen). Two μL of each cDNA sample were used for real-time PCR. Biological triplicates were measured twice. The following primers were used: Forward 5′-[…]-3′ (SEQ ID NO: 10) and Reverse 5′-[…]-3′ (SEQ ID NO: 11). These primers were designed to span a 26 bp intron in the unspliced XBP1 mRNA [12]. […] The fold increase was calculated based on Ct values of treated cells relative to control non-infected and non-treated cells normalized to the values for GAPDH endogenous control.

[5] = test system: ER stress (Gluc secretion), 293T cells; assay: Real-time monitoring of ER stress with Gluc (Gluc activity in conditioned medium); type: cell-based, human
Method: Fold induction is calculated with respect to the control non-infected/non-treated cells. […] The mean±S.E.M. is presented on the graphs (n=3), with *p<0.01 as compared to the non-treated cells and as calculated by the student's t-Test. NS=not significant
Gaussia luciferase for monitoring of ER stress in real-time. Splicing of the XBP-1 mRNA to sXBP1 and expression of BiP protein are generally used as biomarkers for ER stress.

BiP, 293T cells = assay: Western blot for BiP; type: cell-based, human; settings: DTT 0.03-2 mM, 24 h, dose dependent
Method: as §1
Western blot. Total cell lysates were prepared in lysis buffer containing 150 mM NaCl, 50 mM TRIS, pH 8.0, 1% NP-40, 0.5% deoxycholate, 0.1% SDS, and protease inhibitors (PI Complete; Boehringer Mannheim, Indianapolis, Ind.). Forty μg protein were electrophoresed in 12.5% SDS-polyacrylamide gels, and transferred to nitrocellulose membranes (Bio-Rad). […] Membranes were then incubated with horseradish peroxidase (HRP) conjugated to secondary antibodies: sheep anti-mouse IgG-HRP (1:10,000) or donkey anti-rabbit IgG-HRP (1:10,000) (Amersham Pharmacia Biotech, Piscataway, N.J.). For protein detection we used SuperSignal West Pico Chemiluminescent Substrate™ (Pierce, Rockford, Ill.).

[6] = test system: unfolded protein response (GRP78); assay: Immunoblotting for GRP78, unfolded protein response (FIG. 12); type: cell-based; settings: cells treated with tunicamycin
Method: Immunobloting for GRP76 of protein lysates from cells not expressing Gluc in the absence (untreated) or presence of tunicamycin, an agent which upregulates the UPR, compared with untreated cells expressing the Gluc-YFP conjugate protein.
To assess the effect of Gluc expression on cell physiology and to ask if Gluc expression triggers an ER stress response and/or induces the unfolded protein response (UPR), cells were treated with tunicamycin, an agent which upregulates the UPR in the presence or absence of Gluc expression.

| Molecule | decrease of Gluc secretion into the conditioned medium [1] | bioluminescence from the media compared to untreated cells [2] | secretion of Gluc-YFP luciferase activity [3] | also measured |
| --- | --- | --- | --- | --- |
| CC[C@@]1([C@@H]2O[C@@H]([C@H]3O[C@@](O)(CO)[C@H](C)C[C@@H]3C)C[C@@H]2C)CC[C@H]([C@]2(C)CC[C@]3(C[C@H](O)[C@@H](C)[C@@H]([C@@H](C)[C@@H](OC)[C@H](C)C(=O)O)O3)O2)O1 [monensin A] | ~65% |  |  |  |
| C=C1[C@@H](C)[C@H]2[C@H](Cc3ccccc3)NC(=O)[C@]23OC(=O)/C=C/[C@H](O)CCC[C@@H](C)C/C=C/[C@H]3[C@@H]1O [cytochalasin B] | ~30% |  |  |  |
| C[C@H]1CCC/C=C/[C@@H]2C[C@H](O)C[C@H]2[C@H](O)/C=C/C(=O)O1 [BFA, brefeldinA] | about 90% | reduced | blocked to the same extent as for Gluc | localization of Gluc-YFP fusion protein ([3]; real-time confocal microscopy on live cells): trapped in the ER |
| COC(=O)Nc1nc2ccc(C(=O)c3cccs3)cc2[nH]1 [nocodazole] | ~75% | reduced | blocked to the same extent as for Gluc |  |
| O[C@H](CS)[C@H](O)CS (racemic) [DTT, dithiothreitol] |  |  |  | extent of XBP-1 mRNA splicing ([4]; DTT 0.03-2 mM, 4 h, dose dependent): increased; Gluc secretion in the conditioned medium over time ([5]; 1 mM DTT, real-time monitoring, started to recover after 4 h, normal level after 24 h): complete inhibition of secretion for the first 3 h; secretion of Gluc ([5]; DTT 0.03-2 mM, 4 h): decrease; amount of BiP (BiP, 293T cells): increased |
| tunicamycin |  |  |  | increase in spliced XBP-1 message ([4]; tunicamycin 3 μg/ml for 4 h): 9 fold; expression of GRP78 [6]: detected; decrease in Gluc secretion ([5]; tunicamycin 3 μg/ml for 4 h): over 90% |
